According to PMC3414448 (PLoS ONE, 2012):
Several values for one entry are separate records, joined by “and”; a condition that tells them apart may be missing. Equal values may be shown once. Read-outs that look alike come from different tables or passages of the source.

Legend:
[1] = system: undifferentiated Caco-2 cells
[2] = system: differentiated Caco-2 cells
[3] = system: 8-hydroxydeoxyguanosine (8-OHdG)
[4] = system: phosphorylated histone variant H2AX (γ-H2AX)
[5] = system: 8-hydroxydeoxyguanosine (8-OHdG); remark: listed apart in the source
[6] = system: phosphorylated histone variant H2AX (γ-H2AX); remark: listed apart in the source
[7] = system: 8-hydroxydeoxyguanosine (8-OHdG); assay: cells; details: Homo sapiens, Caco-2, 24 h, read-out: EC50 8-OHdG nuclear staining
[8] = system: phosphorylated histone variant H2AX (γ-H2AX); assay: cells; details: Homo sapiens, Caco-2, 24 h, read-out: EC50 γ-H2AX nuclear staining

SMILES	Cell Count (%Control) (CHO-K1 cells)	Cell Count (%Control) (A549 cells)	concentration at which nuclear area was significantly increased [1] [µM]	cytotoxicity in differentiated cells [2]	concentration at which 8-OHdG staining was significantly increased [3]	EC50 ([3]; read-out: EC50 8-OHdG nuclear staining) [µM]	concentration at which γ-H2AX staining was significantly increased [4] [µM]	γ-H2AX staining at non-cytotoxic concentrations [4]	concentration at which 8-OHdG was significantly increased [5] [µM]	concentration at which γ-H2AX staining was increased [6] [µM]	concentration at which nuclear area was significantly increased ([1]; undifferentiated Caco-2, 24 hr, p<0.05)	EC50 [7] [µM]	EC50 [8] [µM]
CO[C@@]12[C@H](COC(N)=O)C3=C(C(=O)C(C)=C(N)C3=O)N1C[C@@H]1N[C@@H]12 [MMC, mitomycin C]	98.56 %Control and 101.70 %Control and 91.11 %Control	98.78 %Control and 95.22 %Control and 78.78 %Control	–	–	–	–	–	–	–	–	–	–	–
OO [Peroxide, hydrogen peroxide]	–	–	≥ 100	Neither rotenone nor peroxide induced cytotoxicity	not statistically significant	5.5	300	increased γ-H2AX staining at the highest non-cytotoxic concentration (100 µM)	100	1000	–	–	–
C=C(C)[C@H]1Cc2c(ccc3c2O[C@@H]2COc4cc(OC)c(OC)cc4[C@@H]2C3=O)O1 [Rotenone, rotenone]	–	–	–	Neither rotenone nor peroxide induced cytotoxicity	–	–	–	–	–	–	all rotenone concentrations	0.99	1.1
